{"source": "paper PMC5327383", "about": "“Pneumococcal galactose catabolism is controlled by multiple regulators acting on pyruvate formate lyase” (Scientific Reports, 2017)", "target": "CcpA (Streptococcus pneumoniae, UniProt A0A0H2ZQ65)", "sequence (A0A0H2ZQ65 entry or part of it)": "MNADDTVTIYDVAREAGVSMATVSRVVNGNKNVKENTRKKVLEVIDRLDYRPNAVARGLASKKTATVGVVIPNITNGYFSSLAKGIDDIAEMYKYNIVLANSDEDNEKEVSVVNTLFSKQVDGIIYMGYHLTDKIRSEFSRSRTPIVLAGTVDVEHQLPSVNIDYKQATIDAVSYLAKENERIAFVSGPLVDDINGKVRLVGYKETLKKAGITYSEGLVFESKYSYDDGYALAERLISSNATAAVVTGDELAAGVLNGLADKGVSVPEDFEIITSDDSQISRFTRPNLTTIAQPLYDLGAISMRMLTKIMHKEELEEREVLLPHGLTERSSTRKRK", "conditions": "10 mM; room temperature; raises DNA affinity; direct binding of formate not shown", "note": "Where a name gives a salt, the structure may show the parent alone.", "data": [{"smiles": "O=CO", "note": "[sodium formate]", "values": [{"measurement": "EMSA with pflB promoter DNA, protein preincubated with compound", "result": "formate enhanced the binding of CcpA to PpflB"}]}]}
